Our source for the Activity, inhibition and IC50 values is ChEMBL document CHEMBL2016567, “Novel acridinedione derivatives: design, synthesis, SIRT1 enzyme and tumor cell growth inhibition studies” (Bioorg Med Chem Lett, 2012).

Calls of active or inactive are those of the source. No cut-off for these calls is given here.

The test system of one data set is HEK293. Kind of data set: Cytotoxicity against human HEK293 cells at 10 uM. The conditions noted are these: hek293, 10 µM. It is filed as cell-based.
In data set [1] the target is T1, NAD-dependent protein deacetylase sirtuin-1 (Homo sapiens) (UniProt Q96EB6).
T1 sequence (whole entry): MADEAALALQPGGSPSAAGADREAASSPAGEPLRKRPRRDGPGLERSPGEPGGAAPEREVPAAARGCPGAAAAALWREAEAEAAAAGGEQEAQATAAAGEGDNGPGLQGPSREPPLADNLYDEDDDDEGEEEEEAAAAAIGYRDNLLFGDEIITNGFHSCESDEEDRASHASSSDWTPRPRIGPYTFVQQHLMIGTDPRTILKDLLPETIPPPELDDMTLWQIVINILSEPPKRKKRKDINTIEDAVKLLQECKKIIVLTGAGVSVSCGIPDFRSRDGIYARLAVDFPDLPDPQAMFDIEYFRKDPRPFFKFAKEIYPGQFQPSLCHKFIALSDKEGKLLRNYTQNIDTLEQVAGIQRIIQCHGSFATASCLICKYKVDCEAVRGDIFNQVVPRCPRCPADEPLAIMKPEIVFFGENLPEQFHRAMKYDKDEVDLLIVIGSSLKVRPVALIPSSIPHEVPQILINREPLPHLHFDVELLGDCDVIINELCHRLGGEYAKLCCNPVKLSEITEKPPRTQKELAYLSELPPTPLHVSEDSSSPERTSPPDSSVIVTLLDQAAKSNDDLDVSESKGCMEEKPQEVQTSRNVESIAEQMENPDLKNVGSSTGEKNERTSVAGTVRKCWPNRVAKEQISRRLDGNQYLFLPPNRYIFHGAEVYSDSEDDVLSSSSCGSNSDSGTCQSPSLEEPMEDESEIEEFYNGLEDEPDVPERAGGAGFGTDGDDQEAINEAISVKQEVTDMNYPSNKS
Kind of data set: Inhibition of human SIRT1 using Fluor-de-Lys as substrate at 50 uM.

For data set [2], the system named is MDA-MB-231. Kind of data set: Growth inhibition of human MDA-MB-231 cells. It is filed as functional, cell-based.
The subject of the next data set is K562. Kind of data set: Growth inhibition of human K562 cells. Format: functional, cell-based.
For data set [3], the target named is T2, NAD-dependent protein deacetylase sirtuin-1 (Homo sapiens, UniProt Q96EB6).
T2 sequence (Q96EB6 whole entry): T1 sequence (whole entry)
Kind of data set: Inhibition of human SIRT1 using Fluor-de-Lys as substrate.

Data set [4] concerns the target T1, NAD-dependent protein deacetylase sirtuin-1 (Homo sapiens). Kind of data set: Inhibition of SIRT1 in human MDA-MB-231 cells assessed as increase in p53 acetylation at lysine 382 residue after 24 hrs by Western blot analysis. It is filed as cell-based.
Data set [5] relates to MDA-MB-231. The experiment in a line: Decrease in SIRT1 protein level in human MDA-MB-231 cells after 24 hrs by Western blot analysis. It is filed as functional, cell-based.

As for `CC1(C)CC(=O)C2=C(C1)N(NC(=O)c1ccncc1)C1=C(C(=O)CC(C)(C)C1)C2c1ccccc1OCc1ccccc1`, the Activity entry in the data set with HEK293 is reported as “Non-toxic”. Further, the inhibition in data set [1] was determined as 72.6%. The IC50 in the data set on MDA-MB-231 [2] came to 5 µM; in the data set with K562, 10 µM.

Take `CC1(C)CC(=O)C2=C(C1)N(NC(=O)c1ccncc1)C1=C(C(=O)CC(C)(C)C1)C2c1cccc(OCc2ccccc2)c1`: the Activity entry with HEK293 is on record as “Non-toxic”. In data set [1], this compound had an inhibition of 53.7%. Moreover, the IC50 in the data set on MDA-MB-231 [2] was > 50 µM; in the data set on K562 it was 10 µM.

For `CC1(C)CC(=O)C2=C(C1)N(Nc1ccc([N+](=O)[O-])cc1[N+](=O)[O-])C1=C(C(=O)CC(C)(C)C1)C2c1ccc(OCc2ccccc2)cc1`, in the data set on HEK293, the Activity entry is “Non-toxic”. The IC50 in data set [3] came out at 43.3 µM; with MDA-MB-231 [2], 6.63 µM. In data set [1], this compound yielded an inhibition of 54.8%.

For `CC1(C)CC(=O)C2=C(C1)N(Nc1ccccc1)C1=C(C(=O)CC(C)(C)C1)C2c1ccccc1OCc1ccccc1`, the Activity entry with HEK293 was “Non-toxic”. Also, the 50% inhibitory concentration (IC50) was 11.1 µM in data set [3] and 50 µM with MDA-MB-231 [2]. The compound also had an inhibition in data set [1] of 82.1%.

Consider `COc1ccc(C(=O)NN2C3=C(C(=O)CC(C)(C)C3)C(c3ccc(OCc4ccccc4)cc3)C3=C2CC(C)(C)CC3=O)c(OC)n1`, for which, in the data set with HEK293, the Activity result is given as “Non-toxic”. In addition, the IC50 in data set [3] is 25 µM; with MDA-MB-231 [2] it was 0.31 µM. The inhibition in data set [1] was determined as 55.1%.

Turning to `Cc1ccc(C(=O)Nc2ccc(S(=O)(=O)O)c3cc(S(=O)(=O)O)cc(S(=O)(=O)O)c23)cc1NC(=O)c1cccc(NC(=O)Nc2cccc(C(=O)Nc3cc(C(=O)Nc4ccc(S(=O)(=O)O)c5cc(S(=O)(=O)O)cc(S(=O)(=O)O)c45)ccc3C)c2)c1` [SURAMIN], the Activity entry in the data set with HEK293 is reported as “Non-toxic”. For the same compound, the inhibition in data set [1] was found to be 53.9%. For the same compound, the IC50 in the data set on MDA-MB-231 [2] is 31.2 µM; with K562, 18.5 µM.

In the case of `CC1(C)CC(=O)C2=C(C1)N(Nc1ccc([N+](=O)[O-])cc1[N+](=O)[O-])C1=C(C(=O)CC(C)(C)C1)C2c1ccccc1OCc1ccccc1`, the inhibition result in data set [4] is “Dose-dependent effect”; in data set [1] it was 83.2%. For the same compound, the Activity entry was “Dose-dependent effect” with MDA-MB-231 [5] and “Non-toxic” in the data set with HEK293. Also, the IC50 is 10.1 µM in data set [3] and 0.25 µM in the data set with MDA-MB-231 [2].

For the compound `CC1(C)CC(=O)C2=C(C1)N(NC(=O)c1ccncc1)C1=C(C(=O)CC(C)(C)C1)C2c1ccc(OCc2ccccc2)cc1`, the Activity entry with HEK293 is given as “Non-toxic”. The inhibition result in data set [1] was “inactive”. Moreover, the IC50 with MDA-MB-231 [2] and in the data set on K562 was > 50 µM in each case.

For `CC1(C)CC(=O)C2=C(C1)N(NC(=O)c1ccccc1)C1=C(C(=O)CC(C)(C)C1)C2c1ccccc1OCc1ccccc1`, the inhibition in data set [1] stood at 39.7%.

In data set [1], `CC1(C)CC(=O)C2=C(C1)N(NC(=O)c1ccc(Cl)cc1Cl)C1=C(C(=O)CC(C)(C)C1)C2c1cccc(OCc2ccccc2)c1` registered an inhibition of 4.7%.

The compound `CC1(C)CC(=O)C2=C(C1)N(NC(=O)c1ccc([N+](=O)[O-])cc1)C1=C(C(=O)CC(C)(C)C1)C2c1ccc(OCc2ccccc2)cc1` showed an inhibition in data set [1] of 35.6%.

Take `COc1ccc(C(=O)NN2C3=C(C(=O)CC(C)(C)C3)C(c3ccccc3OCc3ccccc3)C3=C2CC(C)(C)CC3=O)c(OC)n1`: the inhibition in data set [1] is 35.2%.

For the compound `CC1(C)CC(=O)C2=C(C1)N(Nc1ccc([N+](=O)[O-])cc1[N+](=O)[O-])C1=C(C(=O)CC(C)(C)C1)C2c1cccc(OCc2ccccc2)c1`, the inhibition in data set [1] amounted to 33.2%.

In turn, `CC1(C)CC(=O)C2=C(C1)N(NC(=O)c1ccc(Cl)cc1Cl)C1=C(C(=O)CC(C)(C)C1)C2c1ccc(OCc2ccccc2)cc1` gave an inhibition in data set [1] of 3.6%.

In the case of `CC1(C)CC(=O)C2=C(C1)N(NC(=O)c1ccccc1)C1=C(C(=O)CC(C)(C)C1)C2c1cccc(OCc2ccccc2)c1`, the inhibition in data set [1] came to 21.5%.

Turning to `CC1(C)CC(=O)C2=C(C1)N(Nc1ccccc1)C1=C(C(=O)CC(C)(C)C1)C2c1cccc(OCc2ccccc2)c1`, in the data set on HEK293, the Activity result is reported as “Non-toxic”. Besides, the IC50 in data set [3] turned out to be 40.1 µM; in the data set on MDA-MB-231 [2], 0.99 µM. Also, in data set [1], the inhibition amounted to 51.4%.

Take `CC1(C)CC(=O)C2=C(C1)N(NC(=O)c1ccc([N+](=O)[O-])cc1)C1=C(C(=O)CC(C)(C)C1)C2c1cccc(OCc2ccccc2)c1`: the inhibition in data set [1] was 33.6%.

Consider `CC1(C)CC(=O)C2=C(C1)N(NC(=O)c1ccc([N+](=O)[O-])cc1)C1=C(C(=O)CC(C)(C)C1)C2c1ccccc1OCc1ccccc1`, for which, in data set [1], the inhibition was found to be 39%.

Take `COc1ccc(C(=O)NN2C3=C(C(=O)CC(C)(C)C3)C(c3cccc(OCc4ccccc4)c3)C3=C2CC(C)(C)CC3=O)c(OC)n1`: the inhibition in data set [1] worked out at 35.6%.

In the case of `CC1(C)CC(=O)C2=C(C1)N(Nc1ccccc1)C1=C(C(=O)CC(C)(C)C1)C2c1ccc(OCc2ccccc2)cc1`, in the data set on HEK293, the Activity result is recorded as “Non-toxic”. Besides, the figures for the IC50 (in data set [3]; in the data set on MDA-MB-231 [2]) were 43.1 µM and 1.38 µM, respectively. Besides, the inhibition in data set [1] was 55.2%.

As to `COc1cccc2c1C(=O)c1c(O)c3c(c(O)c1C2=O)C[C@@](O)(C(=O)CO)C[C@@H]3O[C@H]1C[C@H](N)[C@H](O)[C@H](C)O1` [DOXORUBICIN], the Activity entry with HEK293 is recorded as “Non-toxic”. In the data set on MDA-MB-231 [2], this compound came in with an IC50 of 10 µM.

Take `CC1(C)CC(=O)C2=C(C1)N(NC(=O)c1ccccc1)C1=C(C(=O)CC(C)(C)C1)C2c1ccc(OCc2ccccc2)cc1`: the Activity entry in the data set with HEK293 is “Non-toxic”. Besides, the IC50 in data set [3] was determined as 46 µM; with MDA-MB-231 [2], 3.16 µM. In addition, in data set [1], the inhibition came to 52%.
